Where “and” joins values, the source holds several entries; their conditions need not be identical. Equal entries are not always repeated.
Columns and labels:
LLC cells [1] = assay: Clonogenic assay, LLC; type: cell-based, mouse; details: 9 days
Experimental: Cells (3 × 10^2/well) were plated in a six-well plate and the culture medium was replaced every 2 days. After culturing for 7–10 d, the cells were fixed with 4% paraformaldehyde for 15 min, stained with 0.1% crystal violet for 30 min, and imaged and counted.

H1299 cells = assay: MTT assay 48 h, H1299; type: cell-based, human; details: 1299
Experimental: (§1) Cells (5 × 10^3/well) were seeded into a 96-well plate and cultured at 37 °C in a 5% CO2 incubator. […] At the final time point, 10 μl MTT solution (5 mg/ml, Sigma, Burlington, MA, USA) was added to each well and incubated for an additional 4 h at 37 °C in a 5% CO2 incubator. Then,100 μl of DMSO was added to each well and mixed thoroughly. Optical density was measured at 492 nm using a microplate reader (Molecular Devices, San Jose, CA, USA).

[2] = test system: LLC OE PD-L1 cells co-cultured with T cells; assay: T cell-mediated tumor cell killing assay, LLC OE PD-L1; type: cell-based; details: Mus musculus, 100 nM, read-out: inhibition rate (T cell-mediated killing)
Experimental: (§2) To acquire activated T cells, human peripheral blood mononuclear cells (PBMC; LTS1077, Yanjin Biological) were cultured in CTSTM AIIM VTM SFM (A3021002; Gibco) with ImmunoCult Human CD3/CD28/CD2 T-cell activator (25 µL/mL; […] Technologies, Cat#10970) for 48 h according to the manufacturer’s protocol. The experiments were performed using mouse anti-CD3 antibody (1 µg/mL; Thermo Scientific, 16-0032-82) and anti-CD28 antibody(5 µg/mL; Thermo Scientific, 16-0281-82). Cancer cells were allowed to adhere to the plates overnight and then incubated for 48 h with activated T cells in the presence or absence of DX ([…]). Different proportions of cancer cells and activated T cells were utilized according to the purpose of each experiment. The T-cell proliferation assay was 1:3; the T-cell killing assay was 1:10; T cells and cell debris were removed by PBS washing, and the living cancer cells were then quantified by a spectrometer at OD (570 nm) followed by crystal violet staining. page 12: Fig 3: […] expression patterns. […] Data was obtained from the TCGA database. (B) T cell-mediated tumor cell killing assay. T cells were co-cultured with LLC Vector, […] CQ-85, or BMS202. […] stained by crystal violet. The relative added value of activated T cells is shown below. Data are presented as mean ± SEM; *P < 0.05, **P < 0.01, ***P < 0.001, compared with control. n.s., not significant. […]

[3] = test system: LLC sh PD-L1 cells co-cultured with T cells; assay: T cell killing assay (colony formation), LLC sh PD-L1; type: cell-based; details: Mus musculus, 72 h, 100 nM, three days, read-out: inhibition rate of colony formation number
Experimental: (§3) To acquire activated T cells, human peripheral blood mononuclear cells (PBMC; LTS1077, Yanjin Biological) were cultured in CTSTM AIIM VTM SFM (A3021002; Gibco) with ImmunoCult Human CD3/CD28/CD2 T-cell activator (25 μL/mL; […] Technologies, Cat#10970) for 48 h according to the manufacturer's protocol. The experiments were performed using mouse anti-CD3 antibody (1 μg/mL; Thermo Scientific, 16-0032-82) and anti-CD28 antibody(5 μg/mL; Thermo Scientific, 16-0281-82). […] Different proportions of cancer cells and activated T cells were utilized according to the purpose of each experiment. The T-cell proliferation assay was 1:3; the T-cell killing assay was 1:10; T cells and cell debris were removed by PBS washing, and the living cancer cells were then quantified by a spectrometer at OD (570 nm) followed by crystal violet staining. page 28: Fig 8: Effects of LZFPN-90 and NMN on tumor immune microenvironment. […] (C) T cells were co-cultured with LLC cells, and treated with LZFPN-90 (100 nM), and NMN (1 mM) to detect the cell proliferation by T cell killing assay. Data are presented as mean ± SEM; *P < 0.05, **P < 0.01, ***P < 0.001 compared with control. n.s., not significant. (1 picture or pasted object on this page, not shown here)

[4] = test system: LLC OE NAMPT cells co-cultured with T cells; assay: T cell-mediated tumor cell killing assay, LLC OE NAMPT; type: cell-based; details: Mus musculus, 100 nM, read-out: inhibition rate (T cell-mediated killing)
Experimental: as §2

PC9 cells = assay: MTT assay 48 h, PC9; type: cell-based, human
Experimental: as §1

[5] = test system: lung cancer organoids derived from lung cancer patients; assay: Patient-derived lung cancer organoid viability; type: cell-based, human; details: 100 nM; 9 days
Experimental: Human lung cancer samples were obtained from Shengjing Hospital of China Medical University (IRB No. 2023PS1105K). The establishment of lung cancer patient-derived organoids was performed as described ([…] et al, [2019]). Organoids were seeded into 96-well plates and treated with the corresponding compounds for 9 days, and cell viability was determined by CellTiter Glo 3D cell viability assay (Promega, G9683).

HepG2 cells = assay: MTT assay 48 h, HepG2; type: cell-based, human
Experimental: as §1

[6] = test system: LLC sh NAMPT cells co-cultured with T cells; assay: T cell killing assay (colony formation), LLC sh NAMPT; type: cell-based; details: Mus musculus, 72 h, 100 nM, three days, read-out: inhibition rate of colony formation number
Experimental: as §3

LLC cells [7] = assay: Apoptosis assay (Annexin V/PI), LLC; type: cell-based, mouse
Experimental: The cells are treated with the compounds. After 48–72 h, the cells were harvested and washed twice with cold PBS. The cells were then stained with Annexin V/propidium iodide (PI) (BD Biosciences) and examined using a NovoCyte Flow Cytometer (ACEA Biosciences). Data were analyzed using NovoExpress software (ACEA Biosciences).

CCN(CC)CCCOc1cccc(-c2cccc3c2CCN3C(=O)c2ncc(CNC(=NC#N)Nc3ccncc3)s2)c1 [LZFPN-90]
Colony formation relative to Ctrl (LLC cells [1]; LZ90-H (80 nM)): 0.24 | Colony formation relative to Ctrl (LLC cells [1]; LZ90-L (20 nM), Ctrl = 1): 0.68 | Colony formation relative to Ctrl (LLC cells [1]; LZ90-M (40 nM)): 0.53 | Relative inhibition (敏感性) (H1299 cells): 0.02 | inhibition at 0.1 µM [2]: ~60% | inhibition at 0.1 µM [3]: 21.9% | inhibition at 0.1 µM [4]: ~60% | Relative inhibition (敏感性) (PC9 cells): 0.29 | survival of lung cancer organoids [5]: the survival of the organoids was decreased significantly | Relative inhibition (敏感性) (HepG2 cells): 0.58 | inhibition at 0.1 µM [6]: 26.8% | Apoptotic cells (sum of both Annexin-positive quadrants) (LLC cells [7]; LZ90 15 nM): 5.3 and 5.6 and 7.76 | Apoptotic cells (sum of both Annexin-positive quadrants) (LLC cells [7]; LZ90 60 nM): 15.11 and 14.38 and 15.17 | Apoptotic cells (sum of both Annexin-positive quadrants) (LLC cells [7]; LZ90 240 nM): 25.37 and 24.61 and 22.88

Source: publication PMC11018795, “The regulatory relationship between NAMPT and PD-L1 in cancer and identification of a dual-targeting inhibitor” (EMBO Molecular Medicine, 2024)
